ChEMBL document CHEMBL3507680, “University of Dundee, Gates Library screen for HepG2 cell viability”

test: Human HepG2 cell viability assay in 384 well format; format: toxicity, cell-based; parameters: dose 125 nL, time 70.5 hour; concentration not given beside the values; details: HepG2 cells, read-out: Inhibition

Structure (SMILES) | cytotoxicity at 70.5 h [%]
c1ccc(COC[C@@H]2CCC[C@@]23CNCCO3)nc1 | 14.4
CC(C)N1CC2(CCCN(c3ccnc4ccccc34)C2)CCC1=O (centres undefined) | -0.494
CC[C@@H]1N(Cc2cc(OC)cc(OC)c2)CCC[C@]12CCC(=O)N2C | -16.6
Cc1cc(N2CCC(n3cc(CCCO)nn3)CC2)ccn1 | -9.19
O=C(COc1ccccc1)N(Cc1ccncc1)C1CC1 | -8.79
COC(=O)[C@H]1CN(C(=O)c2cscn2)C[C@@H]1c1ccc(F)cc1 | 0.296
Cc1cc(C(=O)N(CC2CCCO2)c2ccncc2)c(C)o1 (centres undefined) | -9.47
Cc1ccc(NC2CCN(C(=O)c3cc[nH]n3)CC2)nn1 | -11
O=C(NCCc1ccncc1)[C@H]1CC[C@@H]2[C@@H](CCN2CC2CC2)O1 | -10.8
Cn1ncc(NCc2cccc(OCC(F)(F)F)c2)c(Cl)c1=O | 18.3
O=C(CN1CCC(c2cc(=O)n3c(n2)CCCCC3)C1)N1CCCCC1 (centres undefined) | -8.93
CNc1ncc(C(=O)N2CC[C@@](O)(C3CCOCC3)[C@H](C)C2)cn1 | 5.71
c1csc(CN2CCc3nc(N4CCOCC4)nc(NC4CC4)c3C2)n1 | 17
CC1(C)CNC(=O)c2nc(-c3nnn[nH]3)[nH]c2C1 | -3.01
CC(C)CCc1n[nH]c(C(=O)O)c1Cl | 16.9
O=C(CCCN1CCCCC1)N1CCN(C(=O)c2ccc[nH]2)CC1 | 3.29
CCc1cnc(CN(C(C)=O)C2CCN(CC3(O)CCCCC3)C2)o1 (centres undefined) | 13.4
COc1cccc(-c2nc(CNCCc3cccnc3)cs2)c1 | -19.3
Cc1ccccc1CCC(=O)N1CCc2ncnc(NCCO)c2CC1 | -0.133
CCOCC(=O)N1CCC(c2nc(-c3cccnn3)no2)CC1 | -11.6
O=C(NCCCOCC1CC1)Nc1ccc(-n2cncn2)c(F)c1 | -13.3
CN(Cc1cc(-c2ccccc2)no1)Cc1nccn1C | 9.3
NC(=O)c1ccc(NC(=O)c2ccncc2Cl)cn1 | -4.51

Structure (SMILES) | cytotoxicity at 70.5 h [%]
CCC(=O)N1CCCC(C(=O)c2cnn(-c3ccc(F)cc3)c2N)C1 (centres undefined) | -0.996
CCN(CC)S(=O)(=O)NC(C)C(=O)N(C)C (centres undefined) | 0.169
O=C(NCCNc1ccc(Br)cn1)c1ccc(O)cc1 | -6.46
COCCCN1C(=O)CC(N2CCN(c3ccc(F)cc3)CC2)C1=O (centres undefined) | -1.4
Cc1cc(C)c(CNC(=O)NCCNc2cnccn2)c(=O)[nH]1 | -4.64
Cc1nnc(N2CCc3cnc(C(C)C)nc3C2)c(C#N)c1C | 1.1
CN(C)C(=O)N1Cc2ncn(C)c2C(COCC2CCOCC2)C1 (centres undefined) | -11.9
Cc1nc(Cn2cnc3c(c(Br)nn3C)c2=O)cs1 | 11.6
Cc1cc(CCC(=O)N(C)C)nc(C2CCCCN2)n1 (centres undefined) | -5.77
COc1cc(C(C)=O)ccc1OCC(=O)c1cccn1C | 32.2
O=C1C(Nc2nccn3cnnc23)CCN1c1cccc(Cl)c1 (centres undefined) | -11.2
OCCc1cc(C2CCCN2c2ncccn2)n[nH]1 (centres undefined) | -2.35
CC(C)CNC(=O)Nc1ccc(CN2CCOC2=O)cc1 | -13.4
CCOc1cc(NC(=O)C2CC(=O)N(c3cccc(OC)c3)C2)ncn1 (centres undefined) | -2.94
CCOC(=O)c1ccc(CNC(=O)c2ccc(C)nc2)o1 | 11
c1csc(CN2CCc3c(CNc4nncs4)cncc3C2)c1 | -9.12
Cc1ccc(OCCN(C)C(C)c2cccc(S(N)(=O)=O)c2)cc1 (centres undefined) | 1.1
O=C(Nc1nncs1)N1CCC(c2ccc(O)cc2)CC1 | -4.31
Cc1nn(C)cc1C1CC(=O)Nc2c1cnn2C(C)(C)C (centres undefined) | -4.68
CCc1cnc(NCc2nc(CSC)no2)nc1 | 10.1
CCc1c(C(=O)Nc2ccc(F)c(C(=O)NC)c2)cnn1CC(C)C | 0.0762
COc1ccc(C(O)C(=O)N2CCC(c3nccn3C(C)C)CC2)cc1 (centres undefined) | 28.1
Cc1cc(C2CCC2)nc(NCC(C)(C)N2CCOCC2)n1 | 15.4

Structure (SMILES) | cytotoxicity at 70.5 h [%]
O=C(CCn1cccn1)NCC(c1cccs1)N1CCCC1 (centres undefined) | -5.3
O=C(c1cccs1)N1CCC(n2nc(-c3ccco3)ccc2=O)CC1 | 11.7
CCOCCOC(C)C(=O)Nc1nccn1Cc1ccccc1 (centres undefined) | -15
CC(C)CN1CCCC2(CCN(c3ccccn3)C2)C1 (centres undefined) | 8.64
CCC(=O)c1ccc(OCC(=O)NC(C)c2nnn[nH]2)cc1 (centres undefined) | -0.478
CCS(=O)(=O)N1CCC2(CC1)CC1(CCN(CCOC)CC1)C(=O)N2C | -6.01
CCCc1nnsc1C(=O)NCC1CCN(S(C)(=O)=O)CC1 | -4
CCc1nnc2n1CCN(CCS(=O)(=O)c1ccccc1)C2 | -11.4
Clc1cncc(N2CCCC2c2nnc3n2CCCCC3)n1 (centres undefined) | -17.1
O=C(CNC(=O)c1ccccc1I)NCc1ccccc1F | -10.2
COc1ccccc1OCc1cc(C(=O)N2CCN(C(C)=O)CC2)n[nH]1 | -5.97
Cc1cnn(CC2CCCCN2CCCS(N)(=O)=O)c1 (centres undefined) | 33.5
CC(=O)N1CCC(NC(=O)Cc2csc(C(C)(C)C)n2)CC1 | -6.85
N#Cc1ccc(SCCOCCO)c(Cl)c1 | -5.04
CC(C)(C)OC(=O)N1CCN(S(=O)(=O)CCCC#N)C2(CCCCC2)C1 | -4.48
CS(=O)(=O)N1CCC(c2nc3ccc(-c4cccc(F)c4)cn3n2)CC1 | -5.73
CC1=N[C@@]2(CC[C@@H]3CN(C(=O)NCc4ccccc4C)C[C@@H]32)C(=O)N1 | 7.73
CCOc1ccccc1C(=O)N1CCn2c(nnc2C(F)(F)F)C1 | -1.86
O=C(C1CCCCO1)N1CCc2ncnc(NCc3ccon3)c2CC1 (centres undefined) | -9.14
CCNc1ncc(C(=O)NCCNc2ccncc2C)cn1 | 3.69
O=C1Nc2ccccc2CN(C/C=C/c2ccccc2)C12CCNC2 (centres undefined) | 2.42
Cc1csc(NC(=O)NCCCN2CCC(C(N)=O)CC2)n1 | -16.3
CC(c1cccc(F)c1)N1CCN(Cc2nccn2C)CC1 (centres undefined) | -9.9

Structure (SMILES) | cytotoxicity at 70.5 h [%]
CC(C)N1c2sc(-c3ccccc3)nc2CC1C(=O)NCCCO (centres undefined) | -5.59
CN1CCCCC1CCC(=O)NCCCn1ncc2ccccc21 (centres undefined) | -3.92
COCCC1(CO)CCCN(C(=O)CCC(F)(F)F)C1 (centres undefined) | -10.8
O=C(O)c1nn(CC2CC2)c2c1CN(S(=O)(=O)c1cccnc1)CC2 | -11
O=C(c1ccncc1)N1CCc2c(COCC3CC3)cncc2C1 | 0.493
COCCn1/c(=N\C(=O)CN(C)S(C)(=O)=O)sc2cc(C)ccc21 | 14.4
Cc1ccc(NS(=O)(=O)c2cc(C(=O)O)oc2C)c(Br)c1 | -6.35
O=C(Cc1cccc(O)c1)N1CCCC(O)(CN2CCOCC2)CC1 (centres undefined) | 0.936
O=C(NCCNc1ncccn1)C1CCN(CC(F)(F)F)CC1 | -3.78
CCN(CC1CCOC1)C(=O)Nc1ccc(N2CCOCC2)nc1 (centres undefined) | 18.9
Cc1nc(C(=O)N(Cc2c(C)nn(C)c2C)C(C)C)cs1 | -0.883
COc1ccc(CNCC2CN(C3CC3)CCO2)cc1C (centres undefined) | -4.72
CSc1ncccc1C(=O)N1C[C@H]2CC[C@@H]1CN(c1ncccn1)C2 | -10.3
CCn1c(C2CCCN2Cc2noc(C(C)(C)C)n2)nc2ccccc21 (centres undefined) | -26.2
CCc1nnc(CN2CCN(CC(O)c3ccccc3)CC2)o1 (centres undefined) | -1.5
COC1CCN(CCNC(=O)NC(C)c2cccc(Cl)c2)CC1 (centres undefined) | -0.888
NC(=O)c1nc(COc2ccc3c(c2)OCO3)no1 | -12.9
CNC(=O)c1coc(-c2csc(C)n2)c1 | -6.74
CC(C)[C@H](CO)Nc1nccc(-c2c[nH]nc2-c2ccncc2)n1 | -3.12
COCc1noc(CCNC(=O)c2ccc(C3CCCO3)s2)n1 (centres undefined) | 8.28
Cc1c(-c2c(-c3ccccc3)ncn2[C@@H](C(=O)O)[C@H](C)O)cnn1C | 3.82
CC(C)NC(=O)[C@@]12CCO[C@@H]1CCN(Cc1ccc3c(c1)OCO3)C2 | 1.85
Cc1ncc(CN2CCCC2c2ccc(C(=O)NCc3ccoc3)s2)s1 (centres undefined) | -0.861

Structure (SMILES) | cytotoxicity at 70.5 h [%]
O=C1CC2(CCSC2)C(=O)N1CCCc1ccccc1 (centres undefined) | -5.63
CCc1ncc2c(n1)CN(Cc1nc(-c3ccccn3)no1)CC2 | 33.7
Cn1cc(NC(=O)Cn2cc(-c3ccccc3)ncc2=O)cn1 | 19.6
CC(C)c1cc(NC2CCCN(C(=O)c3cccs3)C2)ncn1 (centres undefined) | 2.55
O=C(CN(Cc1cccs1)C1CCS(=O)(=O)C1)NCC1CCCCC1 (centres undefined) | -1.81
Cc1cc(NC(C)Cc2cccnc2)n2nccc2n1 (centres undefined) | -12
CNC(=O)NCC(CO)Cc1ccccc1OC(F)(F)F (centres undefined) | -5.84
CC(C)(C)c1nc(CN(Cc2cccs2)CC2CCCO2)no1 (centres undefined) | 3.58
Brc1cccc(-c2noc(C3COCCO3)n2)c1 (centres undefined) | -9.75
CN1CC(C(=O)NC(C)(C)CNC(=O)OC(C)(C)C)CC1=O (centres undefined) | 9.2
O=C(CNC(=O)C1(c2ccc(F)cc2F)CCC1)Nc1ccccn1 | -3.32
c1cncc(-c2ccc3c(c2)C2(CC3)CCN(c3nncs3)CC2)c1 | -13.1
N#Cc1cn(C2CC2)c(=O)n(Cc2ncc(-c3cccs3)o2)c1=O | -13
CC(C)C1CN(C(=O)c2csc(CN(C)C)n2)CCC(=O)N1CC1CC1 (centres undefined) | -10.8
CN(C(=O)CN1CCCC1Cc1ccccc1)c1ccccc1 (centres undefined) | -7.08
Cn1cc(-c2nnc3sc(C4CC4)nn23)cn1 | -4.13
CC(C)CNC(=O)[C@H]1C[C@@H]2CN(C(=O)NCC3CCCCC3)C[C@H]1O2 | -2.13
c1cnc(NCc2nnn3c2CN(Cc2cccs2)CCC3)nc1 | -115
COc1ccc2nc(CNC(=O)C3CC4(CCNCC4)CN3C)[nH]c2c1 (centres undefined) | -20.5
COC(=O)c1ccc(F)c(S(=O)(=O)Nc2ccc(C(N)=O)cc2)c1 | -16.7
CCS(=O)(=O)NCCNc1cc(-n2cccc2)ncn1 | -0.787
CCOCCCC(=O)Nc1[nH]nc(-c2ccncc2)c1C | -9.37
